Measured values: patent US20250090823A1, “MICRONEEDLE PATCH FOR ENHANCING ACCUMULATION OF PROTOPORPHYRIN IX IN SOLID TUMOR AND PREPARATION METHOD THEREFOR” (SHENZHEN UNIVERSITY, priority 2022, published 2025)

Experiments:
[1] = tested on: 4T1 breast cancer subcutaneous tumor; assay: Tumor-volume inhibition after PDT, 4T1 breast cancer subcutaneous tumor model; assay type: in vivo, mouse; conditions: 50 mg/kg CCPCA NPs, 3.4 mg/kg 5-ALA, 635 nm laser 10 min at 12, 24, 36 h, 14 days
Excerpt: A specific characterization method is as follows: 20 4T1 model tumor mice with a tumor size of 100 mm^3 are equally divided into 4 experimental groups, namely the MN (+) group with blank microneedle and irradiated with laser, the 5-ALA i.v (+) group with tail intravenous injected with 5-ALA and irradiated with laser, the MN-5-ALA (+) group with 5-ALA microneedle delivery and irradiated with laser, the MN-CCPCA (+) group with transdermal microneedle loaded with 5-ALA and CAT using nanoparticles and irradiated with lase. The mice in the laser treatment group are irradiated with a laser with a wavelength of 635 nm for 10 minutes (200 mW/cm^2) at 12, 24, and 36 h, respectively. The doses administered are 50 mg/kg of CCPCA NPs and 3.4 mg/kg of 5-ALA. The volume of mouse tumor in each group on different days (0, 2, 4, 6, 8, 10, 12, 14) is measured by a vernier caliper.

[2] = tested on: subcutaneous U87MG glioblastoma; assay: Tumor-volume inhibition after 3 repeated PDT, subcutaneous U87MG glioblastoma model; assay type: in vivo, mouse; conditions: 50 mg/kg CCPCA NPs, 3.4 mg/kg 5-ALA, 635 nm laser 10 min at 6, 12, 24 h, 14 days
Protocol: A specific characterization method is as follows: 20 U87MG model tumor mice with a tumor size of 100 mm^3 are equally divided into 4 experimental groups, namely the MN (+) group with blank microneedle and irradiated with laser, the 5-ALA i.v (+) group with tail intravenous injected with 5-ALA and irradiated with laser, the MN-5-ALA (+) group with 5-ALA microneedle delivery and irradiated with laser, the MN-CCPCA (+) group with transdermal microneedle loaded with 5-ALA and CAT using nanoparticles and irradiated with lase. The doses administered are 50 mg/kg of CCPCA NPs and 3.4 mg/kg of 5-ALA. The mice in the laser treatment group are irradiated with a laser with a wavelength of 635 nm for 10 minutes (200 mW/cm^2) at 6, 12, and 24 h, respectively. The volume of mouse tumor in each group on different days (0, 2, 4, 6, 8, 10, 12, 14) is measured by a vernier caliper.

A375 tumor cell = assay: Dynamic PpIX fluorescence in A375 tumor cell by high-content fluorescence microscopy; assay type: cell-based; conditions: equal amount of 5-ALA, time after hatching (incubation)
Excerpt: The dynamic fluorescence value of PpIX generated by an in-vivo cell is monitored in real time by high-content fluorescence microscopy.

A375 melanoma cells = assay: PpIX accumulation (mass) generated in A375 tumor cell by different nanoparticles; assay type: cell-based; conditions: same concentration of 5-ALA (10.8 μg mL^−1)
Excerpt: The biological effects of MN-CCPCA in accumulating PpIX in a cell and an in-vivo tumor are studied.

[3] = background statement; cited from earlier work

Row | SMILES | tumor growth inhibition rate [1] | tumor growth inhibition rate [2] | time at which PpIX concentration/intensity in the cell reaches the maximum (A375 tumor cell) | intracellular PpIX content (A375 melanoma cells) | time of rapid clearance of PpIX in vivo [3] | time to highest peak of PpIX synthesis in vivo [3]
1 | NCC(=O)CCC(=O)O [5-ALA, 5-aminolevulinic acid] | 27.5% | 19.1% | 6 h | 35.1±3.3 ng/10^6 cells | – | –
2 | C=CC1=C(C)c2cc3[nH]c(cc4nc(cc5[nH]c(cc1n2)c(C)c5CCC(=O)O)C(CCC(=O)O)=C4C)c(C)c3C=C [PpIX, Protoporphyrin IX] | – | – | – | – | ≤ 12 h | about 4 hours
